{"source": "patent US20140220036A1", "about": "“METHODS FOR TREATING NEURODEGENERATIVE DISEASES AND FOR IDENTIFYING AGENTS USEFUL FOR TREATING NEURODEGENERATIVE DISEASES” (priority 2013, published 2014)", "data": [{"system": "h-tau42-dependent transmitter block", "assay": "Oral administration of agents to squid, then presynaptic h-tau42 injection and recording of synaptic transmission", "type": "in vivo, squid (Loligo paelli)", "conditions": "systemic administration of agent", "description": "Squid received an oral dose of each agent effective for such inhibiting phosphorylation of the tau protein. At 24 hours after the first dose a second dose was given, and the electrophysiological experiments were performed 1 hour after the second feeding. It was determine that after 24 hours of the double administration, an effective concentration of each agent effective for such inhibiting phosphorylation of the tau protein was measured in the CNS of the gastrically intubated squid (n=10 squid). Synapses from the treated squid were microinjected at the presynaptic axon with h-tau42 (an approximate 80 nM final concentration h-tau42 (n=19), considering a 100× dilution factor. Pre- and post-synaptic potentials were recorded for 90 min.\nThe squid (Loligo paelli) stellate ganglia isolation from the mantle and the electrophysiological techniques used have been described previously (Llinás, et al., Proc. Natl. Acad. Sci. U.S.A. 1985; 82: 3035-3039). Two glass micropipette electrodes impaled the largest (most distal) presynaptic terminal digit at the synaptic junction site while the post-synaptic axon was impaled by one microelectrode at the junctional site. One of the pre-electrodes was used for pressure microinjection of h-tau42 and also supported voltage clamp current feedback, while the second monitored membrane potential. The total volume injected fluctuated between 0.1 and 1 pl. (Llinás, et al., Proc. Natl. Acad. Sci. U.S.A. 1985; 82: 3035-3039). The exact location of injection and the diffusion and steady-state distribution of the protein/fluorescent dye mix (0.001% dextran fluorescein) were monitored using a fluorescence microscope attached to a Hamamatsu camera system (Middlesex, N.J.). In all experiments a good correlation was observed between the localization of the fluorescence and the electrophysiological findings.\nFollowing presynaptic and post-synaptic axon impalements and the determination of normal synaptic transmission (Llinás, et al., Proc. Natl. Acad. Sci. U.S.A. 1985; 82: 3035-3039; Llinás, et al. Proc. Natl. Acad. Sci. U.S.A. 1994; 91: 12990-12993; Lin, et al., Proc. Natl. Acad. Sci. U.S.A. 1990; 87: 8257-8261), the effect of human tau on synaptic release was evaluated by presynaptic microinjections administered under direct visualization using a fluorescent dye/protein mix, reaching a final concentration after diffusion of approximately 80 nM. (See, Materials and Methods) Presynaptic and post-synaptic potentials were recorded simultaneously under current-clamp configuration. Presynaptic spikes were activated every 5 minutes (low-frequency protocol). With this paradigm, it was determined that 5-10 minutes after an injection of h-tau42, a reduction of transmitter release could be observed. With further time, a total block of transmission resulted, within 30-40 minutes depending on the length of the release zone in the preterminal axon (see, e.g. FIG. 2). […] By contrast, following administration of each agent effective for such inhibiting phosphorylation of the tau protein to the squid (see bellow) h-tau42-dependent transmitter block was prevented (see, generally, Figures).", "values": [{"compound": "Cn1cnc(N)c2ncnc1-2", "note": "[3-methyladenine]", "h-tau42 induced functional and biochemical abnormalities in the presynaptic axon": "prevented or ameliorated"}, {"compound": "O=C1CN(/N=C/c2ccc(-c3ccc([N+](=O)[O-])cc3)o2)C(O)=N1", "note": "[Dantrolene]", "h-tau42 induced functional and biochemical abnormalities in the presynaptic axon": "prevented or ameliorated"}, {"compound": "Cn1cc(C2=C(c3coc4ccccc34)C(=O)NC2=O)c2cc(Br)ccc21", "note": "[ING-135]", "h-tau42 induced functional and biochemical abnormalities in the presynaptic axon": "prevented or ameliorated"}, {"compound": "[Cl-].[Li+]", "note": "[LiCl]", "h-tau42 induced functional and biochemical abnormalities in the presynaptic axon": "prevented or ameliorated"}, {"compound": "C[S+]([O-])c1ccc(-c2nc(-c3ccncc3)c(-c3ccc(F)cc3)[nH]2)cc1", "note": "(centres unmarked) [SB203580]", "h-tau42 induced functional and biochemical abnormalities in the presynaptic axon": "prevented or ameliorated"}, {"compound": "Cn1cc(C2=C(c3ccc(Cl)cc3Cl)C(=O)NC2=O)c2ccccc21", "note": "[SB216763]", "h-tau42 induced functional and biochemical abnormalities in the presynaptic axon": "prevented or ameliorated"}, {"compound": "Xitospongin C", "h-tau42 induced functional and biochemical abnormalities in the presynaptic axon": "prevented or ameliorated"}]}, {"system": "fast axonal transport (FAT)", "assay": "not given", "conditions": "Kanaan et al. 2011; squid axons; cited from earlier work", "values": [{"compound": "Cn1cc(C2=C(c3coc4ccccc34)C(=O)NC2=O)c2cc(Br)ccc21", "note": "[ING-135]", "effect on inhibition of axonal transport by PAD peptide": "blocked"}]}]}
